Key:
NB4 = assay: In vitro cytotoxicity, MTS assay; assay type: cell-based; conditions: Homo sapiens, NB-4, 72 h, read-out: Inhibitory concentration (IC50) NB4
Protocol: (§1) Cladribine phosphoramidate derivatives were evaluated against six leukaemic cell lines (KG1, U937, K562, NB4R2, NB4 and HL-60) in vitro. Inhibitory concentration (IC50) at which 50% of the cells were no longer viable (calculated using MTS assay) was determined. Cells were treated with Cladribine and its 3′-phosphoramidate derivatives at concentrations between 100 μM and 0.02 μM by serial dilutions and incubated for 72 h at 37° C., 5% CO2 in a final volume of 90 μL. Twenty microliters of MTS reagent (Promega UK Ltd, Southampton, Hants) was added to the tumour cell cultures and reaction incubated for a further 4 h at 37° C., 5% CO2. The absorbance of the reaction after this time was read by spectrophotometry at 490 nm and the percentage of viable cells calculated relative to untreated control cells in the same assay.

NB4R2 = assay: In vitro cytotoxicity, MTS assay; assay type: cell-based; conditions: 72 h, read-out: Inhibitory concentration (IC50) NB4R2
Protocol: as §1

K562 = assay: In vitro cytotoxicity, MTS assay; assay type: cell-based; conditions: Homo sapiens, 72 h, read-out: Inhibitory concentration (IC50) K562
Protocol: as §1

HL-60 = assay: In vitro cytotoxicity, MTS assay; assay type: cell-based; conditions: Homo sapiens, 72 h, read-out: Inhibitory concentration (IC50) HL-60
Protocol: as §1

U937 = assay: In vitro cytotoxicity, MTS assay; assay type: cell-based; conditions: Homo sapiens, U-937, 72 h, read-out: Inhibitory concentration (IC50) U937
Protocol: as §1

KG1 = assay: In vitro cytotoxicity, MTS assay; assay type: cell-based; conditions: Homo sapiens, KG-1, 72 h, read-out: Inhibitory concentration (IC50) KG1
Protocol: as §1

[1] = system: HL-60 Promyelocytic leukaemia; assay: In vitro viability assay, CellTiterGlo; assay type: cell-based; conditions: for Top Inhibition (%): HL-60, CellTiterGlo, 72 h; for EC50: Homo sapiens, HL-60, 72 h, read-out: EC50 (μM) Ab
Protocol: (§2) In vitro viability assay was performed to assess the effects of compounds on cell viability in selected cell lines over 72 h using the CellTiterGlo (CTG, Promega-G7573) assay. The tests were performed in duplicates with treatment of compounds at 9 points, 3.16 folds titration in 96 well plates over ˜72 h. The compound starting concentrations were […]. Cell viability assay using CellTiterGlo in 96-well plate were performed. Compounds were dissolved to 40 mM with thawed 100% DMSO. Compounds were serially diluted at 3.16-fold in thawed DMSO, and warmed to 37° C. before being dissolved in media (2 μl+200 μl). After compounds were dissolved in media, media containing compounds were warmed to 37° C. in incubator and then compounds in media were added to cell plates (50 μl+50 μl) in duplicates. The compounds' final concentrations were from 198 μM to 19.9 nM. Solubility of all compounds was checked and recorded again, then the plates were transferred to CO2 tissue culture incubator immediately and incubated for 3 days. DMSO final concentration is 0.5%.

[2] = system: Z-138 Mantle cell lymphoma; assay: In vitro viability assay, CellTiterGlo; assay type: cell-based; conditions: for EC50: Homo sapiens, Z-138, 72 h, read-out: EC50 (μM) Ab; for Top Inhibition (%): Z-138, CellTiterGlo, 72 h
Protocol: as §2

[3] = system: HEL92.1.7 Erythroleukaemia; assay: In vitro viability assay, CellTiterGlo; assay type: cell-based; conditions: for Top Inhibition (%): HEL92.1.7, CellTiterGlo, 72 h; for EC50: Homo sapiens, HEL 92.1.7, 72 h, read-out: EC50 (μM) Ab
Protocol: as §2

[4] = system: RL Non-Hodgkin's lymphoma; assay: In vitro viability assay, CellTiterGlo; assay type: cell-based; conditions: 72 h; for Top Inhibition (%): CellTiterGlo; for EC50: Homo sapiens, read-out: EC50 (μM) Ab
Protocol: as §2

[5] = system: KG-1 Acute myelogenous leukaemia; assay: In vitro viability assay, CellTiterGlo; assay type: cell-based; conditions: for EC50: Homo sapiens, KG-1, 72 h, read-out: EC50 (μM) Ab; for Top Inhibition (%): KG-1, CellTiterGlo, 72 h
Protocol: as §2

[6] = system: MCF-7 Mammary epithelial adenocarcinoma; assay: In vitro viability assay, CellTiterGlo; assay type: cell-based, human; conditions: for EC50: Homo sapiens, MCF7, 72 h, read-out: EC50 (μM) Ab; for Top Inhibition (%): MCF-7, CellTiterGlo, 72 h
Protocol: as §2

Row | Compound | IC50 (NB4) [nM] | IC50 (NB4R2) [nM] | IC50 (K562) [nM] | IC50 (HL-60) [nM] | IC50 (U937) [nM] | IC50 (KG1) [nM] | Top Inhibition (%) [1] [%] | EC50 [1] [µM] | EC50 [2] [µM] | Top Inhibition (%) [2] [%] | Top Inhibition (%) [3] [%] | EC50 [3] [µM] | Top Inhibition (%) [4] [%] | EC50 [4] [µM] | EC50 [5] [µM] | Top Inhibition (%) [5] [%] | EC50 [6] [µM] | Top Inhibition (%) [6] [%]
1 | CC(C)OC(=O)[C@H](C)NP(=O)(Oc1ccccc1)OC1C[C@H](n2cnc3c(N)nc(Cl)nc32)O[C@@H]1CO (stereo partly drawn) [Compound 15, 2-Chloro-2′-deoxyadenosine-3′-[phenylaso-propoxy-L-alaninyl)] phosphate] | 6000 | 9000 | > 10000 | 2000 | 400 | 5000 |  |  |  |  |  |  |  |  |  |  |  | 
2 | Nc1nc(Cl)nc2c1ncn2[C@H]1CC(OP(=O)(N[C@@H](Cc2ccccc2)C(=O)OCc2ccccc2)Oc2cccc3ccccc23)[C@@H](CO)O1 (stereo partly drawn) [Compound 13, 2-Chloro-2′-deoxyadenosine-3′-[1-naphthyl(benzoxy-L-phenylaninyl)] phosphate] | 300 | 800 | 7000 | 1000 | 1000 | 1000 |  |  |  |  |  |  |  |  |  |  |  | 
3 | C[C@H](NP(=O)(Oc1ccccc1)OC1C[C@H](n2cnc3c(N)nc(Cl)nc32)O[C@@H]1CO)C(=O)OC(C)(C)C (stereo partly drawn) [Compound 2, 2-Chloro-2 ‘-deoxyadenosine-3’-[phenyl-(tert-butoxy-L-alaninyl)]-phosphate] | > 10000 | > 10000 | > 10000 | > 10000 | 6000 | 2000 |  |  |  |  |  |  |  |  |  |  |  | 
4 | C[C@H](NP(=O)(Oc1ccccc1)OC1C[C@H](n2cnc3c(N)nc(Cl)nc32)O[C@@H]1CO)C(=O)OC1CCCCC1 (stereo partly drawn) [Compound 9, 2-Chloro-2′-deoxyadenosine-3′-[phenyl-(cyclohexoxy-L-alaninyl)] phosphate] |  |  |  |  |  |  | 87.7 | 0.13 | 0.051 | 99.9 | 97.2 | 0.044 | 89.9 | 0.14 | 0.8 | 96.9 | 21 | 100
5 | C[C@H](NP(=O)(Oc1cccc2ccccc12)OC1C[C@H](n2cnc3c(N)nc(Cl)nc32)O[C@@H]1CO)C(=O)OC1CCCCC1 (stereo partly drawn) [Compound 8, 2-Chloro-2 ‘-deoxyadenosine-3’-[1-naphthyl-(cyclohexoxy-L-alaninyl)] phosphate] |  |  |  |  |  |  | 96 | 0.46 | 3.5 | 100 | 98.3 | 0.18 | 98.1 | 0.85 | 2.75 | 98.4 | 7.97 | 101
6 | C[C@@H](NP(=O)(Oc1ccccc1)OC1C[C@H](n2cnc3c(N)nc(Cl)nc32)O[C@@H]1CO)C(=O)OCc1ccccc1 (stereo partly drawn) [Compound 3, 2-Chloro-2 ‘-deoxyadenosine-3’-[phenyl-(benzoxy-D-alaninyl)]-phosphate] | 7820 | > 10000 | > 10000 | > 10000 | 7520 | > 10000 |  |  |  |  |  |  |  |  |  |  |  | 
7 | Nc1nc(Cl)nc2c1ncn2[C@H]1CC(OP(=O)(N[C@@H](Cc2ccccc2)C(=O)OCc2ccccc2)Oc2ccccc2)[C@@H](CO)O1 (stereo partly drawn) [Compound 12, 2-Chloro-2 ‘-deoxyadenosine-3’-[phenyl-(benzoxy-L-phenylalaninyl)] phosphate] | 1000 | 2000 | 10000 | 2000 | 2000 | 4000 |  |  |  |  |  |  |  |  |  |  |  | 
8 | CCOC(=O)[C@H](C)NP(=O)(Oc1ccccc1)OC1C[C@H](n2cnc3c(N)nc(Cl)nc32)O[C@@H]1CO (stereo partly drawn) [Compound 1, 2-Chloro-2 ‘-deoxyadenosine-3’-[phenyl-(ethoxy-L-alaninyl)]-phosphate] | 740 | 2520 | > 10000 | 2680 | 3060 | 1760 |  |  |  |  |  |  |  |  |  |  |  | 
9 | CCOC(=O)C(C)(C)NP(=O)(Oc1ccccc1)OC1C[C@H](n2cnc3c(N)nc(Cl)nc32)O[C@@H]1CO (stereo partly drawn) [Compound 11, 2-Chloro-2 ‘-deoxyadenosine-3’-[phenyl-(ethoxy-2,2-dimethylglycinyl)]-phosphate] | > 10000 |  |  | 300 |  |  |  |  |  |  |  |  |  |  |  |  |  | 
10 | CCC(C)OC(=O)[C@H](C)NP(=O)(Oc1ccccc1)OC1C[C@H](n2cnc3c(N)nc(Cl)nc32)O[C@@H]1CO (stereo partly drawn) [Compound 16, 2-Chloro-2′-deoxyadenosine-3′-[phenyl-(2-butoxy-L-alaninyl)] phosphate] | 9000 | > 10000 | > 10000 | 8000 | 2000 | 7000 |  |  |  |  |  |  |  |  |  |  |  | 
11 | CCCCCOC(=O)[C@H](CC(C)C)NP(=O)(Oc1cccc2ccccc12)OC1C[C@H](n2cnc3c(N)nc(Cl)nc32)O[C@@H]1CO (stereo partly drawn) [Compound 7, 2-Chloro-2′-deoxyadenosine-3′-[1-naphthyl-(pentoxy-L-leucinyl)] phosphate] |  |  |  |  |  |  | 98 | 0.27 | 1.07 | 101 | 98.6 | 0.07 | 100 | 0.5 | 1.5 | 98.8 | 5.45 | 103
12 | C[C@H](NP(=O)(Oc1ccccc1)OC1C[C@H](n2cnc3c(N)nc(Cl)nc32)O[C@@H]1CO)C(=O)O[C@@H](C)c1ccccc1 (stereo partly drawn) [Compound 17] | 5500 |  |  | 3200 |  |  |  |  |  |  |  |  |  |  |  |  |  | 
13 | C[C@H](NP(=O)(Oc1ccccc1)OC1C[C@H](n2cnc3c(N)nc(Cl)nc32)O[C@@H]1CO)C(=O)OCC(C)(C)C (stereo partly drawn) [Compound 10, 2-Chloro-2′-deoxyadenosine-3′-[phenyl-(2,2-dimethylpropoxy-L-alaninyl)] phosphate] | > 10000 |  |  | 5300 |  |  | 87.7 | 0.12 | 0.047 | 100 | 97.2 | 0.042 | 89.8 | 0.15 | 0.6 | 95 | 22 | 99.2
14 | CC(C)[C@H](NP(=O)(Oc1ccccc1)OC1C[C@H](n2cnc3c(N)nc(Cl)nc32)O[C@@H]1CO)C(=O)OCc1ccccc1 (stereo partly drawn) [Compound 14, 2-Chloro-2′-deoxyadenosine-3′-[phenyl-(benzoxy-L-valinyl)] phosphate] | 800 | 2000 | > 10000 | 3000 | 400 | 2000 |  |  |  |  |  |  |  |  |  |  |  | 
15 | CC(C)C[C@H](NP(=O)(Oc1ccccc1)OC1C[C@H](n2cnc3c(N)nc(Cl)nc32)O[C@@H]1CO)C(=O)OCc1ccccc1 (stereo partly drawn) [Compound 5, 2-Chloro-2 ‘-deoxyadenosine-3’-[phenyl-(benzoxy-L-leucinyl)]-phosphate] | 2560 | 1570 | > 10000 | 4450 | > 10000 | 5040 |  |  |  |  |  |  |  |  |  |  |  | 
16 | Nc1nc(Cl)nc2c1ncn2[C@H]1CC(OP(=O)(NCC(=O)OCc2ccccc2)Oc2ccccc2)[C@@H](CO)O1 (stereo partly drawn) [Compound 4, 2-Chloro-2 ‘-deoxyadenosine-3’-[phenyl-(benzoxy-glycinyl)]-phosphate] | 8040 | 5560 | > 10000 | > 10000 | > 10000 | > 10000 |  |  |  |  |  |  |  |  |  |  |  | 

From patent US10906929B2, “Phosphoramidate nucleoside derivatives as anticancer agents” (NuCana plc, priority 2016, dated 2021)
